The NIST ThermoML archive (doi:10.1021/acs.jced.9b00507)
± gives the expanded uncertainty stated by the source.

Test: xn = mol fraction of the nth substance listed
Settings: 100 kPa, Liquid; for viscosity: Concentric cylinders viscometry; for mass density: Vibrating tube method

CCCCCCn1cc[n+](C)c1.O=[N+]([O-])[O-] [1-hexyl-3-methylimidazolium nitrate] + CCCCCCO
Settings	mass density [kg/m3]	viscosity [mPa·s]
293.15 K, x1 = 0.0816	859 ± 1.3	12.97 ± 1.1
293.15 K, x1 = 0.1604	894.1 ± 1.3	24.15 ± 2
293.15 K, x1 = 0.2391	925.7 ± 1.3	39.81 ± 3.2
293.15 K, x1 = 0.3502	965.4 ± 1.2	76.74 ± 6.2
293.15 K, x1 = 0.4409	994.2 ± 1.2	123.03 ± 10
293.15 K, x1 = 0.5592	1027.7 ± 1.2	207.01 ± 17
293.15 K, x1 = 0.6508	1050.9 ± 1.2	296.48 ± 25
293.15 K, x1 = 0.7395	1071.2 ± 1.2	414.95 ± 35
293.15 K, x1 = 0.8502	1093.7 ± 1.3	581.11 ± 50
293.15 K, x1 = 0.9391	1110 ± 1.4	707.52 ± 62
293.15 K, x1 = 1	1120.3 ± 1.4	804.17 ± 70
298.15 K, x1 = 0.0816	855.2 ± 1.3	8.79 ± 0.72
298.15 K, x1 = 0.1604	890.1 ± 1.3	14.35 ± 1.2
298.15 K, x1 = 0.2391	921.7 ± 1.3	22.49 ± 1.8
298.15 K, x1 = 0.3502	961.4 ± 1.2	39.81 ± 3.2
298.15 K, x1 = 0.4409	990.2 ± 1.2	63.83 ± 5.2
298.15 K, x1 = 0.5592	1023.9 ± 1.2	109.9 ± 9
298.15 K, x1 = 0.6508	1047.2 ± 1.2	167.11 ± 14
298.15 K, x1 = 0.7395	1067.7 ± 1.2	243.78 ± 20
298.15 K, x1 = 0.8502	1090.5 ± 1.3	367.28 ± 31
298.15 K, x1 = 0.9391	1107.1 ± 1.4	473.22 ± 40
298.15 K, x1 = 1	1117.5 ± 1.4	545.25 ± 47
303.15 K, x1 = 0.0816	851.5 ± 1.3	6.53 ± 0.53
303.15 K, x1 = 0.1604	886.2 ± 1.3	10 ± 0.81
303.15 K, x1 = 0.2391	917.6 ± 1.3	15.42 ± 1.2
303.15 K, x1 = 0.3502	957.2 ± 1.2	26 ± 2.1
303.15 K, x1 = 0.4409	986.1 ± 1.2	39.54 ± 3.2
303.15 K, x1 = 0.5592	1019.9 ± 1.2	66.53 ± 5.4
303.15 K, x1 = 0.6508	1043.3 ± 1.2	101.16 ± 8.2
303.15 K, x1 = 0.7395	1063.9 ± 1.2	149.28 ± 12
303.15 K, x1 = 0.8502	1087 ± 1.3	233.88 ± 19
303.15 K, x1 = 0.9391	1103.7 ± 1.4	315.5 ± 26
303.15 K, x1 = 1	1114.3 ± 1.4	369.14 ± 31
308.15 K, x1 = 0.0816	847.7 ± 1.3	5.01 ± 0.4
308.15 K, x1 = 0.1604	882.4 ± 1.3	6.95 ± 0.56
308.15 K, x1 = 0.2391	913.8 ± 1.3	9.64 ± 0.78
308.15 K, x1 = 0.3502	953.4 ± 1.2	15.85 ± 1.3
308.15 K, x1 = 0.4409	982.3 ± 1.2	23.71 ± 1.9
308.15 K, x1 = 0.5592	1016.1 ± 1.2	40.36 ± 3.3
308.15 K, x1 = 0.6508	1039.6 ± 1.2	63.1 ± 5.1
308.15 K, x1 = 0.7395	1060.2 ± 1.2	95.67 ± 7.8
308.15 K, x1 = 0.8502	1083.5 ± 1.3	157.61 ± 13
308.15 K, x1 = 0.9391	1100.4 ± 1.4	216.41 ± 18
308.15 K, x1 = 1	1111.1 ± 1.4	257.59 ± 21
313.15 K, x1 = 0.0816	843.9 ± 1.3	3.92 ± 0.32
313.15 K, x1 = 0.1604	878.5 ± 1.3	5.11 ± 0.41
313.15 K, x1 = 0.2391	909.9 ± 1.3	6.87 ± 0.55
313.15 K, x1 = 0.3502	949.6 ± 1.2	10.64 ± 0.86
313.15 K, x1 = 0.4409	978.5 ± 1.2	15.42 ± 1.2
313.15 K, x1 = 0.5592	1012.3 ± 1.2	25.7 ± 2.1
313.15 K, x1 = 0.6508	1035.8 ± 1.2	40.74 ± 3.3
313.15 K, x1 = 0.7395	1056.5 ± 1.2	63.17 ± 5.1
313.15 K, x1 = 0.8502	1079.9 ± 1.3	107.2 ± 8.7
313.15 K, x1 = 0.9391	1096.9 ± 1.4	151.34 ± 12
313.15 K, x1 = 1	1107.8 ± 1.4	185.67 ± 15
318.15 K, x1 = 0.0816	840.1 ± 1.3	3.2 ± 0.26
318.15 K, x1 = 0.1604	874.7 ± 1.3	3.92 ± 0.32
318.15 K, x1 = 0.2391	906.1 ± 1.3	5.06 ± 0.41
318.15 K, x1 = 0.3502	945.8 ± 1.2	7.53 ± 0.61
318.15 K, x1 = 0.4409	974.8 ± 1.2	10.79 ± 0.87
318.15 K, x1 = 0.5592	1008.7 ± 1.2	18.71 ± 1.5
318.15 K, x1 = 0.6508	1032.2 ± 1.2	29.04 ± 2.4
318.15 K, x1 = 0.7395	1053.1 ± 1.2	46.03 ± 3.7
318.15 K, x1 = 0.8502	1076.5 ± 1.3	78.87 ± 6.4
318.15 K, x1 = 0.9391	1093.7 ± 1.4	114.4 ± 9.3
318.15 K, x1 = 1	1104.7 ± 1.4	140.18 ± 11
323.15 K, x1 = 0.0816	836.2 ± 1.3	2.63 ± 0.21
323.15 K, x1 = 0.1604	870.7 ± 1.3	3.1 ± 0.25
323.15 K, x1 = 0.2391	902.2 ± 1.3	3.84 ± 0.31
323.15 K, x1 = 0.3502	942 ± 1.2	5.55 ± 0.45
323.15 K, x1 = 0.4409	971 ± 1.2	8.02 ± 0.65
323.15 K, x1 = 0.5592	1005 ± 1.2	13.49 ± 1.1
323.15 K, x1 = 0.6508	1028.7 ± 1.2	21.63 ± 1.8
323.15 K, x1 = 0.7395	1049.5 ± 1.2	36.13 ± 2.9
323.15 K, x1 = 0.8502	1073.1 ± 1.3	63.1 ± 5.1
323.15 K, x1 = 0.9391	1090.4 ± 1.4	91.12 ± 7.4
323.15 K, x1 = 1	1101.6 ± 1.4	110.94 ± 9
